Source: patent US20250214945A1, “THIOBENZIMIDAZOLE DERIVATIVE OR PHARMACEUTICALLY ACCEPTABLE SALT THEREOF, AND USE THEREOF” (KOREA UNIVERSITY RESEARCH AND BUSINESS FOUNDATION, priority 2022, published 2025)

How the values were obtained:
[1] = system: Human triple-negative breast cancer (TNBC) cell line MDA-MB-231; test: MTS cell viability assay, MDA-MB-231 breast cancer cell line; assay type: cell-based; conditions: 0 to 10 μM, FIG. 3, one range stated for both cell lines and three compounds
Description: (§1) Human triple-negative breast cancer (TNBC) cell line MDA-MB-231 (Cell seeding numbers: 1(M231)×10^4 cells/wells (confluency ≥25%) and HER2 positive breast cancer (HER2^+ BC) cell line JIMT-1 (Cell seeding numbers: 1.2(JIMT)×10^4 cells/wells (confluency ≥25%)) were used in the experiments.
(§2) The above mentioned cell lines were cultured under a 5% CO2 environment at 37° C. in Dulbecco's modified Eagle's medium (DMEM) containing 10% fetal bovine serum (FBS), streptomycin-penicillin (100 U/mL) and Fungizone ([…]), respectively.
(§3) The human breast cancer cell lines MDA-MB-231 and JIMT-1 were treated with thiobenzimidazole derivatives of Chemical Formula 1-1 to Chemical Formula 1-17 at concentrations of 0, 0.5, 1 and 5 μM for 72 hours, respectively, and then cell viability was measured by MTS assay. The MTS assay was performed by attaching cells to 96-well plates for 24 hours, treating them with the above mentioned thiobenzimidazole derivatives for 72 hours, and then developing them with MTS (3-(4,5-dimethylthiazol-2-yl)-5-(3-carboxymethoxyphenyl)-2-(4-sulfophenyl)-2H-tetrazolium) for 4 hours, and measuring the absorbance at 490 nm using a Spectramax Plus384 microplate analyzer.
(§4) MDA-MB-231 and JIMT-1 cell lines were treated with the thiobenzimidazole derivatives of the present disclosure (Chemical Formula 1-10, 1-11 and 1-15) at concentrations of 0. 0.01, 0.05, 0.1, 0.1, 0.25, 0.5, 1, 5 and 10 μM, respectively, and then the cell viability and corresponding IC50 values were determined. The preparation and experimentation methods for the cell lines were the same as those used in the Example 1 experiments.

[2] = system: HER2 positive breast cancer (HER2+ BC) cell line JIMT-1; test: MTS cell viability assay, JIMT-1 breast cancer cell line; assay type: cell-based; conditions: Homo sapiens, 0 to 10 μM, FIG. 3, one range stated for both cell lines and three compounds
Description: as §1, §2, §3, §4

IC50 [1] | IC50 [2] | Compound
150 to 350 nM | 150 to 350 nM | COC(=O)Nc1nc2cc(Sc3ccc(N4CCC(O)CC4)cc3)ccc2[nH]1 [1-15]
150 to 350 nM | 150 to 350 nM | COC(=O)Nc1nc2cc(Sc3ccc(N4CCS(=O)(=O)CC4)cc3)ccc2[nH]1 [1-10]
150 to 350 nM | 150 to 350 nM | COC(=O)Nc1nc2cc(Sc3ccc(N4CC(C)N(S(C)(=O)=O)C(C)C4)cc3)ccc2[nH]1 (stereo not drawn) [1-11]
